Where two headings read alike, the source gives them in different places.
Tests used:
[1] = Thermodynamic stability (melting point, heat of solution, equilibration experiments in suspension); type: physicochemical; settings: comparison of polymorphs E, A and B; hydrochloride
Protocol: The thermodynamic stability of the individual crystalline polymorphs E, A and B of [6,7-Bis(2-methoxy-ethoxy)-quinazolin-4-yl]-(3-ethynyl-phenyl)amine hydrochloride were measured according to methods known in the art, e.g., from Byrn (Byrn, S. R., Pfeiffer, R. R., Stowell, J. G., “Solid-State Chemistry of Drugs”, SSCI Inc., West Lafayette, Ind., 1999).

[2] = Solubility after 20 min equilibration at 20° C.; type: physicochemical; settings: hydrochloride; for solubility in aqueous buffer (pH 1): aqueous buffer solution pH 1, 20 min equilibration at 20° C.; for solubility in water: 20 min equilibration at 20° C.
Protocol: The solubility of polymorphs A, B, and E measured after 20 min equilibration at 20° C. in either water or aqueous buffer solution (pH 1) are compiled the following table.: […]

Dissolution rate = type: physicochemical; settings: compared with polymorph B
[3] = polymorphs described in WO 01/34574; cited from earlier work
[4] = polymorphs described in WO 01/34574; cited from earlier work; remark: listed apart in the source
[5] = polymorphs described in WO 01/34574; cited from earlier work; remark: listed apart in the source

| SMILES | thermodynamic stability [1] | solubility in aqueous buffer (pH 1) [2] [%] | solubility in water [2] [%] | dissolution rate (Dissolution rate) | dissolution rate [3] | solubility [4] | thermodynamic stability [5] |
| --- | --- | --- | --- | --- | --- | --- | --- |
| C#Cc1cccc(Nc2ncnc3cc(OCCOC)c(OCCOC)cc23)c1.Cl [polymorph E, [6,7-Bis(2-methoxy-ethoxy)-quinazolin-4-yl]-(3-ethynyl-phenyl)amine hydrochloride] | thermodynamically more stable than polymorph A | 0.011 | 0.191 | better solubility and dissolution rate than the known polymorph B | – | – | – |
| C#Cc1cccc(Nc2ncnc3cc(OCCOC)c(OCCOC)cc23)c1.Cl [polymorph A, [6,7-Bis(2-methoxy-ethoxy)-quinazolin-4-yl]-(3-ethynyl-phenyl)amine hydrochloride] | – | 0.017 | 0.194 | – | better solubility and dissolution rate than polymorph B | better solubility and dissolution rate than polymorph B | – |
| C#Cc1cccc(Nc2ncnc3cc(OCCOC)c(OCCOC)cc23)c1.Cl [polymorph B, [6,7-Bis(2-methoxy-ethoxy)-quinazolin-4-yl]-(3-ethynyl-phenyl)amine hydrochloride] | more stable than polymorphs E and A | 0.003 | 0.098 | – | – | – | thermodynamically more stable than polymorph A |
